Data reported in ChEMBL document CHEMBL1151820, “Antagonists of the P2X(7) receptor. From lead identification to drug development” (J Med Chem, 2009).

These compounds were tested against T1, P2X purinoceptor 7 (Homo sapiens, UniProt Q99572) (assay: Antagonist activity at human P2X7 receptor expressed in human U373 cells assessed as inhibition of BzATP-induced Yo-Pro uptake). Details: not given.
T1 sequence (Q99572 whole entry): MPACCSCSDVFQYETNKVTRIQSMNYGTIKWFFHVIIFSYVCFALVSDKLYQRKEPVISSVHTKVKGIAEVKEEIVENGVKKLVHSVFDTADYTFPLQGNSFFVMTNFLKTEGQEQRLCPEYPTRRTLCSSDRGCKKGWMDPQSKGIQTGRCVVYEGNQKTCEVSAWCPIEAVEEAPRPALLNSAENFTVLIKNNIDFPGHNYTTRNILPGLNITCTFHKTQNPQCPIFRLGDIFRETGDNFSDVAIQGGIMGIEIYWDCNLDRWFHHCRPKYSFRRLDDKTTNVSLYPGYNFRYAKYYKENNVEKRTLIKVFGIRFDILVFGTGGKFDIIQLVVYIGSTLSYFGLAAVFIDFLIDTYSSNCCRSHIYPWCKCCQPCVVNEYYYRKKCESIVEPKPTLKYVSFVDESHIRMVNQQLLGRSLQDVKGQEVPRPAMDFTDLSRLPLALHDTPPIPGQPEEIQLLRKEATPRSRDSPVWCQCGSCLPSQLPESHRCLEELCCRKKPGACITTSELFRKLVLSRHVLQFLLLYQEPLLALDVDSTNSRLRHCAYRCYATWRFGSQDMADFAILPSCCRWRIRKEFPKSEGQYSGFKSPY
Type: functional, cell-based, U-373MG ATCC

Going from `CC(CC1=N[C@H](c2ccccc2)[C@H](c2ccccc2)N1)c1ccccc1` (some centres undefined) to `c1ccc(CCC2=N[C@H](c3ccccc3)[C@H](c3ccccc3)N2)cc1`, the IC50 rises from 31.6 nM to 79.4 nM (2.5-fold).

`c1ccc(CCCC2=N[C@H](c3ccccc3)[C@H](c3ccccc3)N2)cc1` and `c1ccc(CCCCC2=N[C@H](c3ccccc3)[C@H](c3ccccc3)N2)cc1` are within 1.5-fold of each other in IC50: 501 nM for the first, 631 nM for the second.

First: Clc1ccccc1CCC1=N[C@@H](c2ccccc2)[C@@H](c2ccccc2)N1
Second: Clc1cccc(CCC2=N[C@H](c3ccccc3)[C@H](c3ccccc3)N2)c1
The IC50 of the first is 2-fold lower: 63.1 nM for the first, 126 nM for the second.

Going from `Cc1ccccc1CC1=N[C@H](c2ccccc2)[C@H](c2ccccc2)N1` to `Fc1ccccc1CC1=N[C@H](c2ccccc2)[C@H](c2ccccc2)N1`, the IC50 rises from 316 nM to 631 nM (2-fold). The first is the more potent here.

Going from `Fc1cccc(CNC2=N[C@@H](c3ccccc3Cl)[C@@H](c3ccccc3Cl)N2)c1` to `Fc1cccc(CNC2=N[C@@H](c3ccccc3)[C@@H](c3ccccc3)N2)c1`, the IC50 falls from 398 nM to 100 nM (4-fold).

Going from `c1ccc([C@H]2N=C(C3Cc4ccccc4C3)N[C@H]2c2ccccc2)cc1` to `c1ccc(C2=N[C@@H](c3ccccc3)[C@@H](c3ccccc3)N2)cc1`, the IC50 rises from 31.6 nM to 3980 nM (130-fold). The first is the more potent here.

`Fc1ccc(CC2=N[C@H](c3ccccc3)[C@H](c3ccccc3)N2)cc1` and `Fc1cccc(CC2=N[C@H](c3ccccc3)[C@H](c3ccccc3)N2)c1` are the same in IC50: 79.4 nM for the first, 79.4 nM for the second.

Going from `Cc1cccc([C@H]2NC(NCc3cccc(F)c3)=N[C@H]2c2cccc(C)c2)c1` to `COc1ccc(CCC2=N[C@H](c3ccccc3)[C@H](c3ccccc3)N2)cc1`, the IC50 rises from 126 nM to greater than 3160 nM.

The compounds below were run against T2, P2X purinoceptor 7 (Homo sapiens) (UniProt Q99572). Details: HEK293, at 3 µM.
T2 sequence (whole entry): T1 sequence (Q99572 whole entry)

Going from `COc1ccc(S(=O)(=O)Oc2ccc(C[C@H](NC(=O)OCc3ccccc3)C(=O)N3CCN(C(=O)OC(C)(C)C)CC3)cc2)cc1` to `Cc1ccc(S(=O)(=O)Oc2ccc(C[C@H](NC(=O)OCc3ccccc3)C(=O)N3CCN(C(=O)OC(C)(C)C)CC3)cc2)cc1`, the inhibition rises from 62% to 71%.

`CC(C)(C)OC(=O)N1CCN(C(=O)[C@H](Cc2ccc(OS(=O)(=O)c3cccc4cccnc34)cc2)NS(C)(=O)=O)CC1` and `CC(C)(C)OC(=O)N1CCN(C(=O)[C@@H](N)Cc2ccc(OS(=O)(=O)c3cccc4cccnc34)cc2)CC1` cannot be ordered by inhibition: less than 10% for the first, less than 10% for the second.

Compared with `CC(C)(C)OC(=O)N1CCN(C(=O)[C@H](Cc2ccc(OS(=O)(=O)c3cccc4cccnc34)cc2)NC(=O)OCc2ccccc2)CC1`, `CC(C)(C)OC(=O)N1CCN(C(=O)[C@H](Cc2ccc(OS(=O)(=O)c3cccc4cnccc34)cc2)NC(=O)OCc2ccccc2)CC1` is lower in inhibition: 53% for the first, 43% for the second.

Going from `CCOC(=O)N[C@@H](Cc1ccc(OS(=O)(=O)c2cccc3cccnc23)cc1)C(=O)N1CCN(C(=O)OC(C)(C)C)CC1` to `CC(C)(C)OC(=O)N1CCN(C(=O)[C@H](Cc2ccc(OS(=O)(=O)c3cccc4cccnc34)cc2)NC(=O)c2ccccc2)CC1`, the inhibition rises from less than 10% to 13%.

Going from `CC(C)(C)OC(=O)N1CCN(C(=O)[C@H](Cc2ccc(OS(=O)(=O)c3cccc4cccnc34)cc2)NS(=O)(=O)c2cccc3cccnc23)CC1` to `CC(C)(C)OC(=O)N1CCN(C(=O)[C@H](Cc2ccc(OS(=O)(=O)c3cccc4cccnc34)cc2)NS(=O)(=O)c2cccc3cnccc23)CC1`, the inhibition falls from 61% to 37%.

First: O=C(N[C@@H](Cc1ccc(OS(=O)(=O)c2ccccc2)cc1)C(=O)N1CCN(S(=O)(=O)c2ccccc2)CC1)OCc1ccccc1
Second: O=C(N[C@@H](Cc1ccc(OS(=O)(=O)c2ccccc2)cc1)C(=O)N1CCN(C(=O)c2ccccc2)CC1)OCc1ccccc1
The inhibition of the first is lower: less than 10% for the first, 78% for the second.

First: Cc1ccc(S(=O)(=O)N[C@@H](Cc2ccc(OS(=O)(=O)c3cccc4cccnc34)cc2)C(=O)N2CCN(C(=O)OC(C)(C)C)CC2)cc1
Second: CC(C)(C)OC(=O)N1CCN(C(=O)[C@H](Cc2ccc(OS(=O)(=O)c3cccc4cccnc34)cc2)NS(=O)(=O)c2ccccc2)CC1
The inhibition of the first is higher: 32% for the first, less than 10% for the second.

`CC(C)(C)OC(=O)N1CCN(C(=O)[C@H](Cc2ccc(O)cc2)NC(=O)OCc2ccccc2)CC1` and `CCC(=O)Oc1ccc(C[C@H](NC(=O)OCc2ccccc2)C(=O)N2CCN(C(=O)OC(C)(C)C)CC2)cc1` cannot be ordered by inhibition: less than 10% for the first, less than 10% for the second.

First: CC(C)(C)OC(=O)N1CCN(C(=O)[C@H](Cc2ccc(OC(=O)OCc3ccccc3)cc2)NC(=O)OCc2ccccc2)CC1
Second: CC(C)(C)OC(=O)N1CCN(C(=O)[C@H](Cc2ccc(OC(=O)c3ccccc3)cc2)NC(=O)OCc2ccccc2)CC1
The inhibition of the first is lower: less than 10% for the first, 47% for the second.

Compared with `O=C(N[C@@H](Cc1ccc(OS(=O)(=O)c2ccccc2)cc1)C(=O)N1CCN(C(=O)OCc2ccccc2)CC1)OCc1ccccc1`, `CCC(=O)N1CCN(C(=O)[C@H](Cc2ccc(OS(=O)(=O)c3ccccc3)cc2)NC(=O)OCc2ccccc2)CC1` is lower in inhibition: 48% for the first, less than 10% for the second.

`CCOC(=O)Oc1ccc(C[C@H](NC(=O)OCc2ccccc2)C(=O)N2CCN(C(=O)OC(C)(C)C)CC2)cc1` and `CC(C)(C)OC(=O)N1CCN(C(=O)[C@H](Cc2ccc(OS(C)(=O)=O)cc2)NC(=O)OCc2ccccc2)CC1` cannot be ordered by inhibition: less than 10% for the first, less than 10% for the second.

`CC(C)(C)OC(=O)N1CCN(C(=O)[C@H](Cc2ccc(OS(=O)(=O)c3ccccc3)cc2)NC(=O)OCc2ccccc2)CC1` gave an inhibition of 59%.

These compounds were tested against T1, P2X purinoceptor 7 (assay: Antagonist activity at P2X7 receptor in human THP1 cells assessed as inhibition of BzATP-induced ethidium uptake). Details: not given.
Type: functional, cell-based, THP-1

Compared with `O=C(CC1CCCCC1)Nc1c(Cl)ccc2nc(NCCCO)ccc12`, `CS(=O)(=O)NC(=O)NCCCc1ccc2c(C(=O)NCC3CCCCC3)c(Cl)ccc2n1` is 20-fold higher in IC50: 25.1 nM for the first, 501 nM for the second.

`O=C(NC12CC3CC(CC(C3)C1)C2)c1ccccc1Cl` and `O=C(NCC12CC3CC(CC(C3)C1)C2)c1ccc(Cl)cc1` cannot be ordered by IC50: greater than 10000 nM for the first, greater than 10000 nM for the second.

Compared with `O=C(CC12CC3CC(CC(C3)C1)C2)Nc1cccc2nc(NCCCO)ccc12`, `Cc1ccc2nc(CCNCCCO)ccc2c1NC(=O)CC12CC3CC(CC(C3)C1)C2` is 2-fold higher in IC50: 7.94 nM for the first, 15.8 nM for the second. The first is the more potent here.

`CC(=O)NC(CCc1ccncc1)COc1ccc(-c2cccc([N+](=O)[O-])c2)cc1` (centres undefined) and `COC(=O)NC(CCc1ccncc1)COc1ccc(-c2cccc([N+](=O)[O-])c2)cc1` (centres undefined) cannot be ordered by IC50: greater than 10000 nM for the first, greater than 10000 nM for the second.

`O=C(CC1CCCCCC1)Nc1cccc2c(=O)n([C@H]3CCNC3)ccc12` and `O=C(Cc1ccc(F)c(C(F)(F)F)c1)Nc1cccc2c(=O)n([C@@H]3CNC[C@H]3O)ccc12` are within 1.5-fold of each other in IC50: 3.16 nM for the first, 2.51 nM for the second.

Going from `COC(=O)N(C)C(CCc1ccncc1)COc1ccc(-c2cccc([N+](=O)[O-])c2)cc1` (centres undefined) to `Cc1ccc2c(NC(=O)C[C@H](C)c3ccccc3)c(Cl)ccc2n1`, the IC50 falls from greater than 10000 nM to 316 nM.

Going from `CCCCC(CC)CNC(=O)c1cc(-n2ncc(=O)[nH]c2=O)ccc1Cl` (centres undefined) to `O=C(NCC1(O)CCCCC1)c1cc(-n2ncc(=O)[nH]c2=O)ccc1Cl`, the IC50 falls from 794 nM to 398 nM (2-fold).

Compared with `O=C(CC12CC3CC(CC(C3)C1)C2)Nc1c(Cl)ccc2nc(CN3CCN(CCO)CC3)ccc12`, `C[C@@H](C(N)=O)n1ccc2c(NC(=O)CC34CC5CC(CC(C5)C3)C4)c(Cl)ccc2c1=O` is 250-fold lower in IC50: 20 nM for the first, 0.0794 nM for the second. The second is the more potent here.

Going from `CCS(=O)(=O)N1CCc2c(ccc(C)c2NC(=O)Cc2ccc(C(F)(F)F)c(F)c2)C1` to `O=C(Cc1ccc(C(F)(F)F)c(F)c1)Nc1cccc2c1CCN(C(=O)[C@H]1CCCN1)C2`, the IC50 rises from 25.1 nM to 79.4 nM (3.2-fold).

Compared with `Clc1cccc(-c2nnnn2Cc2c(Cl)cccc2Cl)c1Cl`, `O=C(Cc1cccc(C(F)(F)F)c1F)Nc1c(Cl)ccc2c(=O)n(C3CC3)ccc12` is 400-fold lower in IC50: 126 nM for the first, 0.316 nM for the second.

First: CN(CCO)CCc1cc(C(=O)NCC23CC4CC(CC(C4)C2)C3)c(Cl)cn1
Second: CNC[C@@H](O)Cc1ccc(Cl)c(C(=O)NCC23CC4CC(CC(C4)C2)C3)c1
The IC50 of the first is 1.6-fold higher: 15.8 nM for the first, 10 nM for the second.

First: O=C(NCC12CC3CC(CC(C3)C1)C2)c1cc(-n2ncc(=O)[nH]c2=O)ccc1Cl
Second: CC(C)C(CO)n1ccc2c(NC(=O)CC34CC5CC(CC(C5)C3)C4)cccc2c1=O (centres undefined)
The IC50 of the first is 1000-fold higher: 50.1 nM for the first, 0.0501 nM for the second.

Same assay, conditions: read-out: pA2 (converted)

Going from `Cc1ccccc1NC(=O)CC12CC3CC(CC(C3)C1)C2` to `COc1ccc(Cl)c(C(=O)NCC23CC4CC(CC(C4)C2)C3)c1`, the Kb falls from 158 nM to 1.58 nM (100-fold).

Same assay, conditions: thp-1

With `CC(CO)NC(=O)c1cnc(N2CCC(N3C(=O)OCc4ccccc43)CC2)nc1C(F)(F)F` (centres undefined) the pIC50 was “>= 4.5”.
`O=C(NCC12CC3CC(CC(C3)C1)C2)c1cc(N2CCNCC2)ncc1Cl` was tested, and the pIC50 was greater than 5.
Compound `O=C(NCC12CC3CC(CC(C3)C1)C2)c1cc(OCCCNCCCO)ccc1Cl` has a pIC50 greater than 5.
`NC1CCN(c2nccc(C(=O)NCC34CC5CC(CC(C5)C3)C4)c2Cl)CC1` was tested, and the pIC50 was greater than 5.
With `Cc1cccc(C)c1NC(=O)CN1CC2CCC(C1)N2c1ncnc2sccc12` the pIC50 was “>= 5”.
For `O=C(CNc1ccc(F)c(F)c1)Nc1cc(OC2CCNCC2)ccc1Cl`, the pIC50 was greater than 4.5.
`O=C(NCC12CC3CC(CC(C3)C1)C2)c1ccnc(NCC2CCNCC2)c1Cl` was tested, and the pIC50 was greater than 5.
For `O=C(O)CNCCNc1ccc(Cl)c(C(=O)NCC23CC4CC(CC(C4)C2)C3)c1`, the pIC50 was greater than 5.
`O=C(NCC12CC3CC(CC(C3)C1)C2)c1ccnc(N2CCNCC2)c1Cl` showed a pIC50 greater than 5.
`CN(C(=O)c1ccc(N2CCC(N3C(=O)OCc4ccccc43)CC2)c([N+](=O)[O-])c1)C1CCCCC1` was tested, and the pIC50 was “>= 4.5”.
In the case of `CC(C)NC(=O)c1cnc(N2CCC(N3C(=O)OCc4ccccc43)CC2)c(Cl)c1`, the pIC50 is reported as “>= 4.5”.
Work on `O=C(NCC12CC3CC(CC(C3)C1)C2)c1cc(OC2CCNCC2)ncc1Cl` yielded a pIC50 greater than 5.
Work on `O=C(NCC12CC3CC(CC(C3)C1)C2)c1cc(CCCNCCc2cnc[nH]2)ccc1Cl` yielded a pIC50 greater than 5.
With `C[C@@H]1CN(CC(=O)Nc2cccc3ncccc23)CCN1S(=O)(=O)c1ccc(S(C)(=O)=O)cc1` the pIC50 was “>= 5”.
